Target: T1, AKR1C3 (Homo sapiens, UniProt P42330)
T1 sequence (P42330 1-323): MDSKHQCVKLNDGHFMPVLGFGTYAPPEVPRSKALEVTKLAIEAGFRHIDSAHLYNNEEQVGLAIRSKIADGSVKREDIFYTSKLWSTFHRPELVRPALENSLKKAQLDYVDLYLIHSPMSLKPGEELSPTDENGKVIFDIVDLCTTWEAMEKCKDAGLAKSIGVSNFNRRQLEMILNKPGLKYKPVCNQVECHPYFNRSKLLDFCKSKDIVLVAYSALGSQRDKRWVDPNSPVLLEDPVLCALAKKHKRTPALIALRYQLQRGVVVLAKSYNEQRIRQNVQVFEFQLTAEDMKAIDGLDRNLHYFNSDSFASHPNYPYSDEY
Experiment: S-tetralol oxidation assay, recombinant AKR1C3, absorbance at […] nm
Format: biochemical

**Q.** How did the IC50 turn out when `NS(=O)(=O)c1ccc(-n2nc(CCCNC(=O)Nc3ccc(C(F)(F)F)cc3)cc2-c2ccccc2)cc1` [PTUPB, 4-(5-phenyl-3-{3-[3-(4-trifluoromethyl-phenyl)-ureido]-propyl}-pyrazol-1-yl)-benzenesulfonamide] was run?
**A.** The IC50 was about 0.065 µM.
